Laboratory results as given in PubChem BioAssay (NCI).
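Five compound concentrations were applied to cells in 96-well plates for 48 hours; endpoints were derived by simple linear interpolation of the resulting dose-response curve. GI50 marks 50% less growth. The concentration for full growth arrest is given as TGI.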

What was measured:
Assay in all cases: NCI tumour cell line growth inhibition, 48 h
[1] = test system: HL-60(TB) leukemia
[2] = test system: NCI-H23 lung
[3] = test system: MOLT-4 leukemia
[4] = test system: A549 NSCLC
[5] = test system: U251 CNS
[6] = test system: UACC-257 melanoma
[7] = test system: K-562 leukemia
[8] = test system: NCI-H460 lung
[9] = test system: UACC-62 melanoma
[10] = test system: OVCAR-5 ovarian
[11] = test system: 786-0 renal
[12] = test system: SK-MEL-2 melanoma
[13] = test system: DU-145 prostate
[14] = test system: HOP-62 NSCLC
[15] = test system: SNB-19 CNS
[16] = test system: MCF7 breast
[17] = test system: NCI/ADR-RES ovarian
[18] = test system: M14 melanoma
[19] = test system: SNB-75 CNS
[20] = test system: SW-620 colon
[21] = test system: MDA-MB-231 breast
[22] = test system: SN12C renal
[23] = test system: TK-10 renal
[24] = test system: RPMI-8226 leukemia
[25] = test system: SK-OV-3 ovarian
[26] = test system: NCI-H522 lung
[27] = test system: SR leukemia
[28] = test system: HT29 colon
[29] = test system: OVCAR-4 ovarian
[30] = test system: HCT-116 colon
[31] = test system: OVCAR-3 ovarian
[32] = test system: PC-3 prostate
[33] = test system: SF-295 CNS
[34] = test system: ACHN renal
[35] = test system: SF-268 CNS
[36] = test system: COLO 205 colon
[37] = test system: SK-MEL-28 melanoma
[38] = test system: EKVX NSCLC
[39] = test system: MALME-3M melanoma
[40] = test system: HCT-15 colon
[41] = test system: SF-539 CNS
[42] = test system: SK-MEL-5 melanoma
[43] = test system: BT-549 breast
[44] = test system: A498 renal
[45] = test system: T-47D breast
[46] = test system: UO-31 renal
[47] = test system: MDA-MB-435
[48] = test system: CCRF-CEM leukemia
[49] = test system: NCI-H226 lung
[50] = test system: LOX IMVI melanoma
[51] = test system: IGROV1 ovarian
[52] = test system: HOP-92 NSCLC
[53] = test system: OVCAR-8 ovarian
[54] = test system: HS 578T breast
[55] = test system: CAKI-1 renal
[56] = test system: HCC-2998 colon
[57] = test system: RXF 393 renal
[58] = test system: KM12 colon

CCNCCCn1c2c(c3cc(OC)c(OC)cc3c1=O)C(=O)c1cc(OC)cnc1-2
GI50 [1]: 1.04 µM | TGI [1]: 11.8 µM | GI50 [2]: 0.736 µM | TGI [2]: 7.18 µM | GI50 [3]: 0.0953 µM | TGI [3]: 8.08 µM | GI50 [4]: 2.1 µM | TGI [4]: 33.8 µM | GI50 [5]: 0.267 µM | TGI [5]: 9.16 µM | GI50 [6]: 1.98 µM | TGI [6]: > 55 µM | GI50 [7]: 0.256 µM | TGI [7]: 22.9 µM | GI50 [8]: 0.153 µM | TGI [8]: 5.11 µM | GI50 [9]: 0.388 µM | TGI [9]: 8.21 µM | GI50 [10]: 3.89 µM | TGI [10]: 35.1 µM | GI50 [11]: 0.718 µM | TGI [11]: 6.4 µM | GI50 [12]: > 38.9 µM | TGI [12]: > 75.9 µM | GI50 [13]: 0.639 µM | TGI [13]: 15 µM | GI50 [14]: 0.213 µM | TGI [14]: 2.64 µM | GI50 [15]: 0.529 µM | TGI [15]: > 51.3 µM | GI50 [16]: 0.12 µM | TGI [16]: 13 µM | GI50 [17]: 1.04 µM | TGI [17]: 27.2 µM | GI50 [18]: 0.517 µM | TGI [18]: 25.8 µM | GI50 [19]: 0.474 µM | TGI [19]: 3.45 µM | GI50 [20]: 0.358 µM | TGI [20]: 19.3 µM | GI50 [21]: 2.66 µM | TGI [21]: 20.3 µM | GI50 [22]: 0.837 µM | TGI [22]: > 51.4 µM | GI50 [23]: > 50.4 µM | TGI [23]: > 66.4 µM | GI50 [24]: 0.44 µM | TGI [24]: 4.86 µM | GI50 [25]: 0.471 µM | TGI [25]: 2.06 µM | GI50 [26]: 0.197 µM | TGI [26]: 19.6 µM | GI50 [27]: 0.0685 µM | TGI [27]: 3.29 µM | GI50 [28]: 0.462 µM | TGI [28]: 2.77 µM | GI50 [29]: 2.56 µM | TGI [29]: 18.7 µM | GI50 [30]: 0.376 µM | TGI [30]: 6.59 µM | GI50 [31]: 1.4 µM | TGI [31]: 18.7 µM | GI50 [32]: 1.84 µM | TGI [32]: 26.8 µM | GI50 [33]: 0.159 µM | TGI [33]: 11.2 µM | GI50 [34]: 0.341 µM | TGI [34]: 29.3 µM | GI50 [35]: 0.765 µM | TGI [35]: > 63.1 µM | GI50 [36]: 1.38 µM | TGI [36]: > 53.5 µM | GI50 [37]: 48.5 µM | TGI [37]: > 63.1 µM | GI50 [38]: 15.7 µM | TGI [38]: > 58.6 µM | GI50 [39]: 10.9 µM | TGI [39]: 36.6 µM | GI50 [40]: 1.39 µM | TGI [40]: 19.7 µM | GI50 [41]: 0.432 µM | TGI [41]: 2.14 µM | GI50 [42]: 0.794 µM | TGI [42]: 3.3 µM | GI50 [43]: 1.32 µM | TGI [43]: 25.5 µM | GI50 [44]: 28 µM | TGI [44]: > 58.2 µM | GI50 [45]: 0.711 µM | TGI [45]: > 100 µM | GI50 [46]: 0.615 µM | TGI [46]: > 47.2 µM | GI50 [47]: 1.99 µM | TGI [47]: > 55.6 µM | GI50 [48]: 0.122 µM | TGI [48]: 23.3 µM | GI50 [49]: 1.28 µM | TGI [49]: > 35.8 µM | GI50 [50]: 0.313 µM | TGI [50]: 2.32 µM | GI50 [51]: 1.02 µM | TGI [51]: > 52.8 µM | GI50 [52]: 4.03 µM | TGI [52]: > 60.3 µM | GI50 [53]: 1.2 µM | TGI [53]: 20.1 µM | GI50 [54]: > 43.9 µM | TGI [54]: > 70.3 µM | GI50 [55]: 0.339 µM | TGI [55]: > 50 µM | GI50 [56]: 1.67 µM | TGI [56]: 29.5 µM | GI50 [57]: 1.03 µM | TGI [57]: 4.77 µM | GI50 [58]: 3.33 µM | TGI [58]: 50 µM

CC1=CC(=O)CC(C)(C)[C@@]1(O)/C=C/C(C)=C\C(=O)O
GI50 [1]: 0.127 µM | TGI [1]: 0.309 µM | GI50 [2]: 0.376 µM | TGI [2]: 2.23 µM | GI50 [3]: 0.152 µM | TGI [3]: > 50 µM | GI50 [4]: 0.408 µM | TGI [4]: 3.5 µM | GI50 [5]: 0.224 µM | TGI [5]: 2.26 µM | GI50 [6]: 0.534 µM | TGI [6]: 2.52 µM | GI50 [7]: 0.164 µM | TGI [7]: > 50 µM | GI50 [8]: 0.132 µM | TGI [8]: 0.336 µM | GI50 [9]: 0.545 µM | TGI [9]: 1.37 µM | GI50 [10]: 0.84 µM | TGI [10]: 2.98 µM | GI50 [12]: 0.923 µM | TGI [12]: 2.31 µM | GI50 [14]: 0.159 µM | TGI [14]: 1.05 µM | GI50 [15]: 0.254 µM | TGI [15]: 2.28 µM | GI50 [16]: 0.165 µM | TGI [16]: 1.36 µM | GI50 [17]: 1.01 µM | TGI [17]: 3.76 µM | GI50 [19]: 0.517 µM | TGI [19]: 1.13 µM | GI50 [20]: 0.285 µM | TGI [20]: 2.2 µM | GI50 [21]: 1.14 µM | TGI [21]: 3.55 µM | GI50 [22]: 0.894 µM | TGI [22]: 3.9 µM | GI50 [23]: 0.471 µM | TGI [23]: 2.74 µM | GI50 [24]: 0.174 µM | TGI [24]: 0.644 µM | GI50 [25]: 0.284 µM | TGI [25]: 2.22 µM | GI50 [26]: 0.115 µM | TGI [26]: 0.359 µM | GI50 [27]: 0.155 µM | TGI [27]: > 50 µM | GI50 [28]: 0.157 µM | TGI [28]: 0.585 µM | GI50 [29]: 0.131 µM | TGI [29]: 0.464 µM | GI50 [31]: 0.148 µM | TGI [31]: 0.478 µM | GI50 [32]: 0.347 µM | TGI [32]: 3.46 µM | GI50 [33]: 0.749 µM | TGI [33]: 2.32 µM | GI50 [34]: 0.489 µM | TGI [34]: 2.38 µM | GI50 [35]: 0.793 µM | TGI [35]: 2.82 µM | GI50 [36]: 0.204 µM | TGI [36]: 0.95 µM | GI50 [37]: 0.172 µM | TGI [37]: 0.669 µM | GI50 [38]: 0.25 µM | TGI [38]: 2.29 µM | GI50 [39]: 0.104 µM | TGI [39]: 0.329 µM | GI50 [40]: 0.153 µM | TGI [40]: 0.777 µM | GI50 [41]: 0.206 µM | TGI [41]: 1.29 µM | GI50 [42]: 0.111 µM | TGI [42]: 0.252 µM | GI50 [44]: 0.115 µM | TGI [44]: 0.374 µM | GI50 [45]: 0.34 µM | TGI [45]: 2.22 µM | GI50 [46]: 0.608 µM | TGI [46]: 2.3 µM | GI50 [47]: 0.182 µM | TGI [47]: 0.738 µM | GI50 [48]: 0.196 µM | TGI [48]: > 50 µM | GI50 [49]: 0.148 µM | TGI [49]: 0.499 µM | GI50 [50]: 0.129 µM | TGI [50]: 0.432 µM | GI50 [51]: 0.157 µM | TGI [51]: 0.946 µM | GI50 [52]: 0.566 µM | TGI [52]: 2.98 µM | GI50 [53]: 0.527 µM | TGI [53]: 3.15 µM | GI50 [54]: 0.209 µM | TGI [54]: 1.57 µM | GI50 [56]: 0.139 µM | TGI [56]: 0.43 µM | GI50 [57]: 0.114 µM | TGI [57]: 0.327 µM | GI50 [58]: 0.21 µM | TGI [58]: 1.56 µM
